According to patent US5658885A, “Amidino and guanidino substituted boronic acid inhibitors of trypsin-like enzymes” (The DuPont Merck Pharmaceutical Company, priority 1994, dated 1997):
Counter-ions that a name gives are not always drawn.

Target: T1, human thrombin (Homo sapiens, UniProt P00734)
T1 construct: 0.2-0.5 nM human thrombin or human factor Xa; purchased Enzyme Research Laboratories, South Bend, Ind
Experiment: Inhibition of thrombin hydrolysis of chromogenic substrate S2238 (Ki)
Assay type: biochemical
Conditions: S2238, pH 7.5
Description: The effectiveness of compounds of the present invention as inhibitors of blood coagulation proteases was determined using purified human proteases and synthetic substrates following procedures similar to those described in Kettner et al. (1990).
For these assays, the rate of enzymatic (thrombin, Factor Xa, and Factor VIIa) hydrolysis of chromogenic substrates (S2238 (H-D-Phe-Pip-Arg-pNA), S2222, and S2288, respectively; Kabi Pharmacia, Franklin, Ohio) was measured both in the absence and presence of compounds of the present invention. […] A decrease in the rate of absorbance change at 405 nm in the presence of inhibitor is indicative of enzyme inhibition. The results of this assay are expressed as inhibitory constant, Ki.
Thrombin and Xa determinations were made in 0.10M sodium phosphate buffer, pH 7.5, containing 0.20M NaCl, and 0.5% PEG 8000. VIIa determinations were made in 0.05M tris buffer, pH 7.6, containing 0.10M NaCl, 4 mM CaCl2, and 0.1% bovine serum albumin.
Reactions were allowed to go for 30 minutes and the velocities (rate of absorbance change vs time) were measured in the time frame of 25-30 minutes. The following relationship was used to calculate Ki values. [formula] where: vo is the velocity of the control in the absence of inhibitor;
vs is the velocity in the presence of inhibitor;
I is the concentration of inhibitor;
Ki is the dissociation constant of the enzyme: inhibitor complex;
S is the concentration of substrate;
Km is the Michaelis constant.

SMILES	Ki [nM]
CC(=O)N[C@H](Cc1ccccc1)C(=O)N1CCC[C@H]1C(=O)NC(CCCCC#N)B1OC2CC3CC(C3(C)C)C2(C)O1 (stereo partly drawn) [Example 1, Ac--(D)Phe--Pro--NH--CH[(CH2)4 CN]BO2 C10 H16]	< 50000
CC(C)(C)OC(=O)N[C@H](Cc1ccccc1)C(=O)N1CCC[C@H]1C(=O)NC(CCCNC=N)B1OC2CC3CC(C3(C)C)C2(C)O1 (stereo partly drawn) [Example 6, Boc--(D)Phe--Pro--boroOrn(CH=NH)]--C10 H16.0.5 HCl.0.5 BSA]	< 500
CC1(C)C2CC3OB(C(Cc4cccc(C#N)c4)NC(=O)C4CCCN4)OC3(C)C1C2 (stereo not drawn) [Example 26, H--Pro--boroPhe(m-CN)--C10 H16.HCl]	< 50000
CN(CC(=O)NC(Cc1cccc(C#N)c1)B1OC2CC3CC(C3(C)C)C2(C)O1)C(=O)C(Cc1ccccc1)NC(=O)OC(C)(C)C (stereo not drawn) [Example 73, Boc--(D)Phe--Sar--boroPhe(m-CN)--C10 H16]	< 500
CC1(C)C2CC3OB(C(CCCNC=N)NC(=O)c4ccc(-c5ccccc5)cc4)OC3(C)C1C2 (stereo not drawn) [Example 76, 4-(Phenyl)benzoyl-boroOrn(CH=NH)--C10 H16.HCl]	< 500
CC1(C)C2CC3OB(C(CCCON)NC(=O)C4CCCN4C(=O)C(Cc4ccccc4)NS(=O)(=O)Cc4ccccc4)OC3(C)C1C2 (stereo not drawn) [Example 103, PhCH2 SO2 --(D)Phe--Pro--boroGly[(CH2)3 --ONH2]--C10 H16.HCl]	< 500
CC(C)(C)OC(=O)NC(Cc1ccccc1)C(=O)N1CCCC1C(=O)NC(CCCONC(=N)N)B1OC2CC3CC(C3(C)C)C2(C)O1 (stereo not drawn) [Example 104, Boc--(D)Phe--Pro--boroGly[(CH2)3 --ONHC(=NH)NH2]--C10 H16.HCl]	< 500
CNC(=NC#N)NCCCC(NC(=O)C1CCCN1C(=O)C(Cc1ccccc1)NC(=O)OC(C)(C)C)B1OC2CC3CC(C3(C)C)C2(C)O1 (stereo not drawn) [Example 105, Boc--(D)Phe--Pro--boroOrn--[C(NCN)NHCH3]--C10 H16]	< 500
CC(C)(C)OC(=O)NC(Cc1ccccc1)C(=O)N1CCCC1C(=O)NC(CCCNC(N)=O)B1OC2CC3CC(C3(C)C)C2(C)O1 (stereo not drawn) [Example 108, Boc--(D)Phe--Pro--boroOrn(CONH2)--C10 H16]	< 500
CC(C)(C)OC(=O)NC(Cc1ccccc1)C(=O)N1CCCC1C(=O)NC(CCCNC(=O)CO)B1OC2CC3CC(C3(C)C)C2(C)O1 (stereo not drawn) [Example 112, Boc--(D)Phe--Pro--boroOrn(COCH2 OH)--C10 H16]	< 500
CC(C)(C)OC(=O)N[C@H](Cc1ccccc1)C(=O)N1CCCC1C(=O)NC(CCCNS(C)(=O)=O)B1OC2CC3CC(C3(C)C)C2(C)O1 (stereo partly drawn) [Example 113, Boc--(D)Phe--Pro--boroOrn(N-Methanesulfonyl)--C10 H16]	< 500
CC1(C)C2CC3OB(C(CCCNS(C)(=O)=O)NC(=O)[C@@H]4CCCN4C(=O)[C@H](N)Cc4ccccc4)OC3(C)C1C2 (stereo partly drawn) [Example 114, H--(D)Phe--Pro--boroOrn(N-Methanesulfonyl)-C10 H16.HCl]	< 500
CC(=O)Nc1ccc(S(=O)(=O)NC(Cc2ccccc2)C(=O)N2CCCC2C(=O)NC(CCCNS(C)(=O)=O)B2OC3CC4CC(C4(C)C)C3(C)O2)cc1 (stereo not drawn) [Example 115, 4-(N-Acetyl)Anilinesulfonyl-(D)Phe--Pro--boroOrn(N-Methanesulfonyl)-C10 H16]	< 500
CC1(C)C2CC3OB(C(CCCNS(C)(=O)=O)NC(=O)C4CCCN4C(=O)C(Cc4ccccc4)NS(C)(=O)=O)OC3(C)C1C2 (stereo not drawn) [Example 116, Methanesulfonyl-(D)Phe--Pro--boroOrn(N-Methanesulfonyl)-C10 H16]	< 500
CN(C)[C@H](Cc1ccccc1)C(=O)N1CCCC1C(=O)NC(CCCNS(C)(=O)=O)B1OC2CC3CC(C3(C)C)C2(C)O1 (stereo partly drawn) [Example 117, N,N-dimethyl-(D)Phe--Pro--boroOrn-(N-Methanesulfonyl)-C10 H16.HCl]	< 500
CC(=O)NCC(=O)N[C@H](Cc1ccccc1)C(=O)N1CCC[C@H]1C(=O)NC(CCCNS(C)(=O)=O)B1OC2CC3CC(C3(C)C)C2(C)O1 (stereo partly drawn) [Example 118, Ac--Gly--(D)Phe--Pro--BoroOrn(N-Methanesulfonyl)-C10 H16]	< 500

Results, then the compound that gave them:

Ki [nM]	SMILES
< 500	CC1(C)C2CC3OB(C(Cc4cccc(C#N)c4)NC(=O)[C@@H]4CCCN4C(=O)/C=C/c4cccnc4)OC3(C)C1C2 (stereo in doubt) [Example 42, trans-3-(3-pyridyl)acryl-Pro--boroPhe(m-CN)--C10 H16]
< 500	CC(=O)NC(Cc1ccccc1)C(=O)N1CCCC1C(=O)NC(CCCCC(=N)N)B1OC2CC3CC(C3(C)C)C2(C)O1 (stereo not drawn) [Example 2, Ac--(D)Phe--Pro--NH--CH[(CH2)4 --C(NH)NH2]BO2 C10 H16.BSA]
< 500	CC(=O)NC(Cc1ccccc1)C(=O)N1CCCC1C(=O)NC(Cc1cccc(CN)c1)B1OC2CC3CC(C3(C)C)C2(C)O1 (stereo not drawn) [Example 13, Ac--(D)Phe--Pro--boroPhe--(m-CH2NH2)--C10 H16.HCl]
< 500	CC(=O)N[C@H](Cc1ccccc1)C(=O)N1CCC[C@H]1C(=O)N[C@@H](Cc1cccc(Br)c1)B1O[C@@H]2C[C@@H]3C[C@@H](C3(C)C)[C@]2(C)O1 [Example 14, Ac--(D)Phe--Pro--boroPhe(m-Br)--C10 H16]
< 500	CC(=O)NC(Cc1ccccc1)C(=O)N1CCCC1C(=O)NC(CCCNC(N)=NC#N)B1OC2CC3CC(C3(C)C)C2(C)O1 (stereo not drawn) [Example 15, Ac--(D)Phe--Pro--boroArg(CN)--C10 H16.HCl]
< 500	CC(=O)NC(Cc1ccccc1)C(=O)N1CCCC1C(=O)NC(Cc1ccc(C#N)cc1)B1OC2CC3CC(C3(C)C)C2(C)O1 (stereo not drawn) [Example 16, Ac--(D)Phe--Pro--boroPhe(p-CN)--C10 H16]
< 500	CC(C)(C)OC(=O)NC(Cc1ccccc1)C(=O)N1CCCC1C(=O)NC(Cc1cccc(C#N)c1)B1OC2CC3CC(C3(C)C)C2(C)O1 (stereo not drawn) [Example 17, Boc--(D)Phe--Pro--boroPhe(m-CN)--C10 H16]
< 500	N#Cc1cccc(CC(NC(=O)C2CCCN2C(=O)C(N)Cc2ccccc2)B(O)O)c1 (stereo not drawn) [Example 19, H--(D)Phe--Pro--boroPhe(m-CN)--OH.HCl]
< 500	CC(=O)NC(Cc1ccccc1)C(=O)N1CCCC1C(=O)NC(Cc1ccc(CN)cc1)B1OC2CC3CC(C3(C)C)C2(C)O1 (stereo not drawn) [Example 21, Ac--(D)Phe--Pro--boroPhe(p-CH2 NH2)--C10 H16.BSA]
< 500	CC(=O)NC(Cc1ccccc1)C(=O)N1CCCC1C(=O)NC(Cc1ccc(C(=N)N)cc1)B1OC2CC3CC(C3(C)C)C2(C)O1 (stereo not drawn) [Example 22, Ac--(D)Phe--Pro--boroPhe(p-C(NH)NH2)--C10 H16.BSA]
< 500	CN(C(=O)OC(C)(C)C)C(Cc1ccccc1)C(=O)N1CCCC1C(=O)NC(Cc1cccc(C#N)c1)B1OC2CC3CC(C3(C)C)C2(C)O1 (stereo not drawn) [Example 33, N--Boc--N--CH3 --(D)Phe--Pro--boroPhe(m-CN)--C10 H16]
< 500	CC1(C)C2CC3OB(C(Cc4cccc(C#N)c4)NC(=O)C4CCCN4C(=O)CSc4ncccn4)OC3(C)C1C2 (stereo not drawn) [Example 41, (2-Pyrimidylthio)acetyl-Pro--boroPhe(m-CN)--C10 H16]
< 500	CC1(C)C2CC3OB(C(Cc4cccc(C#N)c4)NC(=O)C4CCCN4C(=O)CSc4ccncc4)OC3(C)C1C2 (stereo not drawn) [Example 43, (4-Pyridylthio)acetyl-Pro--boroPhe(m-CN)--C10 H16]
< 500	N#Cc1cccc(CC(NC(=O)C2CCCN2C(=O)C(Cc2ccccc2)NC(=O)CCC(=O)O)B(O)O)c1 (stereo not drawn) [Example 44, Succinyl-(D)Phe--Pro--boroPhe(m-CN)--OH]
< 500	CC1(C)C2CC3OB(C(Cc4cccc(C#N)c4)NC(=O)C4CCCN4C(=O)CCc4cccnc4)OC3(C)C1C2 (stereo not drawn) [Example 45, 3-Pyridylpropionyl-Pro--boroPhe(m-CN)--C10 H16]
< 500	CC(C)(C)OC(=O)NC(Cc1ccccc1)C(=O)N1CCC1C(=O)NC(Cc1cccc(C#N)c1)B1OC2CC3CC(C3(C)C)C2(C)O1 (stereo not drawn) [Example 46, Boc--(D)Phe--Aze--boroPhe(m-CN)--C10 H16]
< 500	CC1(C)C2CC3OB(C(Cc4cccc(C#N)c4)NC(=O)C4CCN4C(=O)C(N)Cc4ccccc4)OC3(C)C1C2 (stereo not drawn) [Example 47, H--(D)Phe--Aze--boroPhe(m-CN)--C10 H16.HCl]
< 500	CCCS(=O)(=O)N[C@H](Cc1ccccc1)C(=O)N1CCC[C@H]1C(=O)N[C@@H](CCCNC=N)B(O)O [Example 63, CH3 CH2 CH2 SO2 --(D)Phe--Pro--boroOrn(CH=NH)--OH.HCl]
< 500	CCCS(=O)(=O)NC(Cc1ccccc1)C(=O)N1CCCC1C(=O)NC(CCCNC(=N)NC)B(O)O (stereo not drawn) [Example 64, CH3 CH2 CH2 SO2 --(D)Phe--Pro--boroArg(CH3)--OH.HCl]
< 500	CC(=O)NC(Cc1ccccc1)C(=O)N(C)CC(=O)NC(CCCNC=N)B(O)O (stereo not drawn) [Example 67, Ac--(D)Phe--Sar--boroOrn(CH=NH)--OH.HCl]
< 500	CN(CC(=O)NC(CCCNC=N)B(O)O)C(=O)C(Cc1ccccc1)NS(C)(=O)=O (stereo not drawn) [Example 68, Ms--(D)Phe--Sar--boroOrn(CH=NH)--OH.HCI]
< 500	CN(CC(=O)NC(CCCNC=N)B(O)O)C(=O)C(Cc1ccccc1)NS(=O)(=O)CCc1ccccc1 (stereo not drawn) [Example 69, Phenethyl-SO2 --(D)Phe--Sar--boroOrn(CH=NH)--OH.HCl]
< 500	CN(CC(=O)NC(CCCNC=N)B(O)O)C(=O)C(Cc1ccccc1)NC(=O)OC(C)(C)C (stereo not drawn) [Example 70, Boc--(D)Phe--Sar--boroOrn(CH=NH)--OH.HCl]
